Converted amounts (≈) assume the structure as drawn. Where two headings read alike, the source gives them in different places.
Columns and labels:
[1] = test system: Mycobacterium tuberculosis (rMTB); assay: In vivo antimycobacterial activity against M. tuberculosis (rMTB) in spleens of mice; set-up: species or system Mycobacterium tuberculosis Erdman, in female BALB/c mice; conditions: 25 mg/kg daily oral gavage, CM-2, 10 days, control 422,866 (PA-824, 636, 1297) or 362,274 (others)
[2] = test system: Mycobacterium bovis BCG (recombinant strain); assay: microbe, parasite or virus in culture; format: cell-based; conditions: 6 days 37° C.; for MIC: Mycobacterium tuberculosis variant bovis BCG, BCG, 144 h, read-out: MIC, column A, 3(S) compounds
[3] = test system: Mycobacterium tuberculosis (rMTB); assay: In vivo antimycobacterial activity against M. tuberculosis (rMTB) in lungs of mice; set-up: species or system Mycobacterium tuberculosis Erdman, in female BALB/c mice; conditions: 25 mg/kg daily oral gavage, CM-2, 10 days, control 117,258 (PA-824, 636, 1297) or 22,751 (others)
[4] = test system: Helicobacter pylori Strain 4187E; assay: In vivo activity against Helicobacter pylori strain 4187E in mice; set-up: species or system in outbred female white mice; conditions: oral gavage, four days
Text: Outbred female white mice (20 grams) were infected by oral gavage with 10^7 -10^8 colony forming units of H. pylori strain 4187E (originally isolated from a patient with a duodenal ulcer). […] Treatment continued for four days. Clarithromycin, administered at the same concentration and for the same duration, was included as a positive control. One group of animals also received an equal volume of formulation vehicle alone, to provide a negative control.
Five days after cessation of treatment, all animals were sacrificed, the stomachs were removed, opened, and the contents washed out. The entire mucosal surface was then spread evenly over the surface of an agar plate containing antibiotics appropriate for the prevention of growth of microorganisms other than Helicobacter spp. After seven days incubation under microaeropilic conditions at 37° C., culture plates were evaluated for bacterial growth.

[5] = test system: Helicobacter pylori; assay: In vitro inhibition of Helicobacter pylori (broth microdilution MIC); conditions: for MIC: Helicobacter pylori
[6] = test system: Cryptosporidium parvum; assay: Inhibition of Cryptosporidium parvum (ELISA, infected HCT-8 monolayers); format: cell-based; conditions: Cryptosporidium parvum, HCT-8, 48 h, read-out: Percent Inhibition of C. parvum; for inhibition at 25 µg/mL: 25 μg/mL; for inhibition at 50 µg/mL: 50 μg/mL; for inhibition at 100 µg/mL: 100 μg/mL; for inhibition at 200 µg/mL: 200 μg/mL
Protocol: Susceptibility testing against Cryptosporidium was performed according to published procedures (K. Woods, M. Nesterenko, S. Upton, "Development of a microtiter ELISA to quantify development of Cryptosporidium parvum in vitro," FEMS Microbiology Letters, 128:89-94 (1995).
Compounds were solubilized to a concentration of 100 mg/mL in 100% DMSO. DMSO solutions of test compounds were added to the test wells of a microplate at a volume that produced a final concentration of DMSO of 0.2%. Monolayers of human ileocecal adenocarcinoma cells (HCT-8) were prepared by growth in RPMI 1640 medium in 96-Well tissue culture trays for 24 h. Oocysts of C. parvum were allowed to excyst in 10% bleach for 10 min prior to use. Monolayers were then infected with 2-3×10^4 oocysts/well and incubated in the presence or absence of compound for 48 h at 35° C. in 5% CO2 and 95% humidity. Background consisted of wells containing killed oocysts (freeze thaw cycle following 30 sec exposure to liquid nitrogen). Growth control wells were infected with 2-3×10^4 oocysts/well in the absence of test compounds. At the end of incubation, wells were washed and fixed by adding 100 uL of 4% formalin in phosphate buffered saline (pH 7.3) per well for 2 h. After blocking with 1% bovine serum albumin, and 0.002% Tween 20, 50 uL of rat anti-Cryptosporidium membrane protein antiserum was added. After 30 min, wells were washed in PBS and 50 uL of secondary antibody (goat anti-rat antibody conjugated with horseradish peroxidase) was added. After 20-30 min, wells were washed again in PBS and 50 uL of 3,3',5,5'-tetramethylbenzidine solution was added. Plates were allowed to develop for 10-15 min and the optical density was read at 630 nm. Percent inhibition was calculated by comparing the optical density of the drug treated group to that of the untreated control.

[7] = test system: Clostridium difficile ATCC 17857; assay: In vitro inhibition of Clostridium difficile (Oxyrase broth microdilution MIC); format: cell-based; conditions: Clostridioides difficile, ATCC17857; Clostridium difficile ATCC 17857, Oxyrase broth; read-out: MIC, column D, 3(S) compounds
[8] = 72 h, read-out: MIC against Helicobacter pylori, strain 17 (Table 5A)
[9] = 72 h, read-out: MIC against Helicobacter pylori, strain 19 (Table 5A)
[10] = 72 h, read-out: MIC against Helicobacter pylori, strain 20 (Table 5A)
[11] = 72 h, read-out: MIC against Helicobacter pylori, strain 40 (Table 5A)
[12] = 72 h, read-out: MIC against Helicobacter pylori, strain 43 (Table 5A)
[13] = 72 h, read-out: MIC against Helicobacter pylori, strain 76 (Table 5A)
[14] = ATCC43504, 72 h, read-out: MIC against Helicobacter pylori, strain ATCC 43504 (Table 5A)

Compound | Average RLUs, M. tuberculosis (rMTB) in spleens [1] | Average RLUs, M. tuberculosis (rMTB) in lungs [3] | MIC [5, 8] [µg/mL] | MIC [5, 9] [µg/mL] | MIC [5, 10] [µg/mL] | MIC [5, 11] [µg/mL] | MIC [5, 12] [µg/mL] | MIC [5, 13] [µg/mL] | MIC [5, 14] [µg/mL] | MIC [2] [µg/mL] | MIC [7] [µg/mL] | further results
4-Bromobenzyl Carbamate of 3S 3-Hydroxy-6-nitro-3,4-dihydro-[2-1b]imidazopyran [PA-1324] | 85,130 RLUs | 1,612 RLUs | – | – | – | – | – | – | – | – | – | MIC, column A, 3(S) compounds [2]: 0.015
CC[C@H]1OC(=O)[C@H](C)[C@@H](O[C@H]2C[C@@](C)(OC)[C@@H](O)[C@H](C)O2)[C@H](C)[C@@H](O[C@@H]2O[C@H](C)C[C@H](N(C)C)[C@H]2O)[C@](C)(OC)C[C@@H](C)C(=O)[C@H](C)[C@@H](O)[C@]1(C)O [Clarithromycin, reference compound] | – | – | 0.016 (≈ 0.0214 µM) | 8 (≈ 10.7 µM) | 8 (≈ 10.7 µM) | 0.016 (≈ 0.0214 µM) | 0.008 (≈ 0.0107 µM) | 0.032 (≈ 0.0428 µM) | 0.06 (≈ 0.0802 µM) | – | – | % Eradication ([4]; twice daily 5 mg/kg): 0%; % Eradication ([4]; twice daily 50 mg/kg): 100%; MICs of control drugs relative to expected values ([5]; H. pylori ATCC 43): within the expected values; MIC ([5]; 72 h, read-out: MIC against Helicobacter pylori, strain B40, Met-S, Clar-S (Table 5B)): < 0.015 µg/mL; MIC ([5]; 72 h, read-out: MIC against Helicobacter pylori, strain B76, Met-R, Clar-S (Table 5B)): < 0.015 µg/mL; MIC ([5]; 72 h, read-out: MIC against Helicobacter pylori, strain C1649, Met-R, Clar-R (Table 5B)): > 4 µg/mL; MIC ([5]; 72 h, read-out: MIC against Helicobacter pylori, strain C11403, Met-S, Clar-R (Table 5B)): 4 µg/mL (≈ 5.35 µM); MIC ([5]; 72 h, read-out: MIC against Helicobacter pylori, strain C19765 (Table 5B)): < 0.015 µg/mL; MIC ([5]; 72 h, read-out: MIC against Helicobacter pylori, strain RD26, Met-S, Clar-S (Table 5B)): 0.03 µg/mL (≈ 0.0401 µM); MIC ([5]; 72 h, read-out: MIC against Helicobacter pylori, strain rd26, Met-S, Clar-S (Table 5B)): 0.03 µg/mL (≈ 0.0401 µM); MIC ([5]; ATCC43504, 72 h, read-out: MIC against Helicobacter pylori, strain ATCC 43504, Met-R, Clar-S (Table 5B)): 0.03 µg/mL (≈ 0.0401 µM); MIC ([5]; ATCC43526, 72 h, read-out: MIC against Helicobacter pylori, strain ATCC 43526, Met-R, Clar-S (Table 5B)): < 0.015 µg/mL; MIC ([5]; ATCC43579, 72 h, read-out: MIC against Helicobacter pylori, strain ATCC 43579, Met-S, Clar-S (Table 5B)): < 0.015 µg/mL; MIC ([5]; ATCC43629, 72 h, read-out: MIC against Helicobacter pylori, strain ATCC 43629, Met-S, Clar-S (Table 5B)): 0.03 µg/mL (≈ 0.0401 µM)
O=[N+]([O-])c1cn2c(n1)OC[C@@H](OCc1ccc(C(F)(F)F)cc1)C2 [PA-636, 3S 4-(Trifluromethyl)benzyloxy-6-nitro-2H-3,4-dihydo-[2-1b]imidazopyran] | 91,377 RLUs | 5,790 RLUs | – | – | – | – | – | – | – | 0.5 (≈ 1.46 µM) | 3.12 (≈ 9.09 µM) | inhibition at 25 µg/mL [6]: 14.5%; inhibition at 50 µg/mL [6]: 9.4%; inhibition at 100 µg/mL [6]: 21%; inhibition at 200 µg/mL [6]: 39%
O=[N+]([O-])c1cn2c(n1)OC[C@@H](OCc1ccccc1)C2 [PA-651] | – | – | – | – | – | – | – | – | – | > 5 | 3.12 (≈ 11.3 µM) | –
O=[N+]([O-])c1cn2c(n1)OC[C@@H](OCc1c(F)c(F)c(F)c(F)c1F)C2 [PA-652] | – | – | – | – | – | – | – | – | – | > 5 | 3.12 (≈ 8.54 µM) | –
O=[N+]([O-])c1cn2c(n1)OC[C@@H](OCc1ccc(F)cc1F)C2 [PA-654] | – | – | – | – | – | – | – | – | – | > 5 | 3.12 (≈ 10 µM) | –
O=[N+]([O-])c1cn2c(n1)OC[C@@H](OCc1ccc(F)cc1)C2 [PA-655] | – | – | – | – | – | – | – | – | – | > 5 | 6.25 (≈ 21.3 µM) | –
O=[N+]([O-])c1cn2c(n1)OC[C@@H](OCc1cccc(OCc3ccccc3)c1)C2 [PA-820] | – | – | – | – | – | – | – | – | – | < 5 | 3.12 (≈ 8.18 µM) | –
O=C(N[C@@H]1COc2nc([N+](=O)[O-])cn2C1)c1ccc(OCc2ccccc2)cc1 [PA-1125] | – | – | > 25 | 0.8 (≈ 2.03 µM) | 0.8 (≈ 2.03 µM) | 1.5 (≈ 3.8 µM) | 1.5 (≈ 3.8 µM) | > 25 | > 25 | 0.06 (≈ 0.152 µM) | 1.5 (≈ 3.8 µM) | –
CCCCCCCCC(=O)N[C@@H]1COc2nc([N+](=O)[O-])cn2C1 [PA-1139] | – | – | > 25 | 1.5 (≈ 4.62 µM) | 0.8 (≈ 2.47 µM) | 0.8 (≈ 2.47 µM) | 1.5 (≈ 4.62 µM) | 25 (≈ 77.1 µM) | > 25 | 0.06 (≈ 0.185 µM) | 3.12 (≈ 9.62 µM) | inhibition at 25 µg/mL [6]: -13%; inhibition at 50 µg/mL [6]: -3%; inhibition at 100 µg/mL [6]: 56%; inhibition at 200 µg/mL [6]: 98.9%
CCCCCCCCc1ccc(CO[C@@H]2COc3nc([N+](=O)[O-])cn3C2)cc1 [PA-1142] | – | – | > 25 | 0.4 (≈ 1.03 µM) | 0.8 (≈ 2.06 µM) | 1.5 (≈ 3.87 µM) | 0.4 (≈ 1.03 µM) | 3.12 (≈ 8.05 µM) | > 25 | 0.06 (≈ 0.155 µM) | 1.5 (≈ 3.87 µM) | –
O=C(Nc1ccc(C(F)(F)F)cc1)O[C@@H]1COc2nc([N+](=O)[O-])cn2C1 [PA-1327, 4-(Trifluoromethyl)phenyl Carbamate of 3S Hydroxy-6-nitro-2H-3,4-dihydo-[2-1b]imidazopyran] | 68,362 RLUs | 1,561 RLUs | – | – | – | – | – | – | – | 0.25 (≈ 0.672 µM) | – | –
O=C(NCc1ccc(OC(F)(F)F)cc1)O[C@@H]1COc2nc([N+](=O)[O-])cn2C1 [PA-1328, 4-(Trifluoromethoxy)benzyl Carbamate of 3S Hydroxy-6-nitro-2H-3,4-dihydo-[2-1b]imidazopyran] | 251,264 RLUs | 3,000 RLUs | – | – | – | – | – | – | – | 0.03 (≈ 0.0746 µM) | – | –

— patent US6087358A (priority 1997, dated 2000)
